Test [1] has as its target T1, IKK (Homo sapiens, UniProt O14920+O15111). Briefly: In vitro kinase assay of IKK immunoprecipitated from TNFα-stimulated HeLa cells. The arrangement: Endogenous IKK was immunoprecipitated from TNFα-stimulated HeLa cells; endogenous in cells; host or cells: HeLa. The following applies: immunoprecipitated IKK, 100 μM (LTB4 2 μM, 15dPGJ2 10 μM). The format is biochemical. On the procedure: (§1) Cell lysates were incubated with anti-IKKα (Pharmingen), anti-HA (12CA5; Pharmingen), anti-JNK1 (333.8; Pharmingen), or anti-p38 (New England Biolabs) for 2 hours. Then, 15 μl protein A-Sepharose (Sigma) were added and the mixture was allowed to incubate for 1 hour. After extensive washing, kinase assays were performed as known in the art (See e.g., DiDonato et al., Nature 388:548-554 [1997]). Endogenous IKK, HA-tagged IKKα, endogenous JNK1, and p38 activities were determined with GST-1κBα(1-54), GST-c-Jun(1-79), and GST-ATF2 as substrates.
Endogenous IKK was immunoprecipitated from TNFα-stimulated HeLa cells and the kinase activity determined in the presence of different concentrations of PGA1 (the results of which are shown in FIG. 2B) or 15dPGJ2 (the results of which are shown in FIG. 2C).
(§2) In this Example, experiments to determined the effects of arachidonic acid and its metabolites on IKK activity in vivo and in vitro are described. HeLa cells were treated with 50 μM AA, PGA1, PGB2, PGD2, PGE1, PGE2, PGF1α, or thromboxane B2 (T×B2), 1 μM LTB4, or 5 μM 15dPGJ2, for 2 hours in RPMI containing 10% FCS, and stimulated with TNFα for 10 minutes. Cell lysates were then assayed for endogenous IKK activity and recovery. In this FIGURE, “control” indicates unstimulated cells, and “-” indicates treatment with diluent alone. In addition, IKK was immunoprecipitated from TNFα-stimulated HeLA cells and incubated in vitro with 100 μM AA, PGA1, PGB2, PGD2, PGE1, PGE2, PGF1α, or T×B2, 2 μM LTB4 or 10 μM 15dPGJ2, followed by kinase assay and immunoblot analysis. In this FIGURE, “control” indicates to unstimulated cells, and “-”indicates 1% ethanol.
Many protein kinase inhibitors compete with binding of ATP, but preincubation in the presence of increasing concentrations of ATP had no effect on inhibition of IKKβ by 15dPGJ2, as indicated in FIG. 6A. […] The pellets were rinsed and kinase activity was measured.

The target of test [2] is T1, IKK. The test is described as follows: Endogenous IKK activity (kinase assay) in treated, stimulated HeLa cells. The format is cell-based. The arrangement: Endogenous IKK was immunoprecipitated from TNFα-stimulated HeLa cells; endogenous in cells; host or cells: HeLa. The following applies: HeLa cells, 50 μM (LTB4 1 μM, 15dPGJ2 5 μM) 2 hours, TNFα 10 minutes. The protocol:
(§3) Cells used in the experiments described herein were cultured in either RPMI 1640 (Jurkat cells) or DMEM (HeLa and COS cells), supplemented with 10% FBS and antibiotics. Cells were stimulated with either 25 ng/ml TPA, 20 ng/ml recombinant TNFα, or 10 ng/ml interleukin 1β (Sigma). PGA1, 15dPGJ2, T×B2, LTB4, AA and other PGs (Cayman) dissolved in ethanol were used as well, as known in the art (See e.g., Rossi et al., 94:746-750 [1997]). Controls received equal amounts of ethanol. Transfections were performed using Lipofectamine Plus (GIBCO) for HeLa and COS cells and DEAE-dextran (Sigma) for Jurkat cells. Xpress-tagged NIK, Xpress-tagged MEKK1, HA-tagged IKKα, and HA-tagged IKKβ were also used (See e.g., Zandi et al., Science 281:1360-1363 [1998]; and Delhase et al., Science 284:309-313 [1999]). COX2 and cPLA2 expression vectors were obtained from Dr. L. Feng (See also, Hirose et al., J. Am. Soc. Nephrol., 9:408-416 [1998]). PGD synthase was cloned from HT29 colon carcinoma cell line cDNA by PCR and subcloned into a pCDNA3 vector. Cells were lysed in buffer B (50 mM Tris-HCl, pH 7.5, 400 mM NaCl, 1 mM EDTA, 1 mM EGTA, 1% Triton, 0.5% NP-40, 10% glycerol, and supplemented with 20 mM β-glycerophosphate, 10 mM PNPP, […] 1 mM PMSF, 20 μg/ml aprotinin, 2.5 μg/ml leupeptin, 8.3 μg/ml bestatin, 1.7 μg/ml pepstatin, and 2 mM DTT).
as §1, §2

Another test deals with T2, IKKβ (Homo sapiens, UniProt O14920).
T2 sequence (O14920 1-756): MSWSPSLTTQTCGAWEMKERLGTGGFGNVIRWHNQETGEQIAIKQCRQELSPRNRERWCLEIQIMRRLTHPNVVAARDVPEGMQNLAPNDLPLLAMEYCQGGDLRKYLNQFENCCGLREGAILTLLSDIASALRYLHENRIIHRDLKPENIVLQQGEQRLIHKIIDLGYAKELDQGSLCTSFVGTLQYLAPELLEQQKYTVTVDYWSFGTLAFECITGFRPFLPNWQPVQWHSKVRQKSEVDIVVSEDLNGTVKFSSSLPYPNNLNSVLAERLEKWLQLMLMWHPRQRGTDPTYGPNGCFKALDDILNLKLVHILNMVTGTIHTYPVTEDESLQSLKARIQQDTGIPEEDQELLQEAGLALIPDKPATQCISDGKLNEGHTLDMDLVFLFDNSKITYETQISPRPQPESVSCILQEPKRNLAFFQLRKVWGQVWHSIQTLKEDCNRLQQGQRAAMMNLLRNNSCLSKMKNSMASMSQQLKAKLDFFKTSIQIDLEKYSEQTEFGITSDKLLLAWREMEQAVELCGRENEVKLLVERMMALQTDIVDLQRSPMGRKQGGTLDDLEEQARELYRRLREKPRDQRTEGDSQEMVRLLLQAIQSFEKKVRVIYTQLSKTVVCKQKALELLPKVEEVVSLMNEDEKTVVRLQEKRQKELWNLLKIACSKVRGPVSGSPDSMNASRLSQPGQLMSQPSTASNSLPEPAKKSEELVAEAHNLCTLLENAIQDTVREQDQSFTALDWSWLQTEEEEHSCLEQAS
Also noted: FLAG; made in house; host or cells: Sf9 (baculovirus). The following applies: high concentrations; Yin et al.; cited from earlier work.

The subject of another test is NF-κB. The test is described as follows: NF-κB activation / DNA-binding activity by EMSA in stimulated HeLa cells. The format is cell-based, human. The following applies: HeLa cells stimulated with TNFα (PGA1: IL-1 or TNFα). The protocol: as §3
Aliquots of total extracts (15 μg protein) in buffer B were incubated with a ^32P-labeled κB DNA, followed by analysis of DNA-binding activities by EMSA on 4% PAGE gels, as known in the art (See, Rossi et al., supra). Specificity of protein-DNA complexes was verified by supershift with polyclonal antibodies specific for p65 (Rel A).
Background: Mobility shift assays separate free from complexed probe on a gel.

This is an account of results in patent US6649654B1, “Methods for identifying and using IKK inhibitors” (The Regents of the University of California, priority 1999, dated 2003).

T1 sequence (O15111 whole entry, one chain of several): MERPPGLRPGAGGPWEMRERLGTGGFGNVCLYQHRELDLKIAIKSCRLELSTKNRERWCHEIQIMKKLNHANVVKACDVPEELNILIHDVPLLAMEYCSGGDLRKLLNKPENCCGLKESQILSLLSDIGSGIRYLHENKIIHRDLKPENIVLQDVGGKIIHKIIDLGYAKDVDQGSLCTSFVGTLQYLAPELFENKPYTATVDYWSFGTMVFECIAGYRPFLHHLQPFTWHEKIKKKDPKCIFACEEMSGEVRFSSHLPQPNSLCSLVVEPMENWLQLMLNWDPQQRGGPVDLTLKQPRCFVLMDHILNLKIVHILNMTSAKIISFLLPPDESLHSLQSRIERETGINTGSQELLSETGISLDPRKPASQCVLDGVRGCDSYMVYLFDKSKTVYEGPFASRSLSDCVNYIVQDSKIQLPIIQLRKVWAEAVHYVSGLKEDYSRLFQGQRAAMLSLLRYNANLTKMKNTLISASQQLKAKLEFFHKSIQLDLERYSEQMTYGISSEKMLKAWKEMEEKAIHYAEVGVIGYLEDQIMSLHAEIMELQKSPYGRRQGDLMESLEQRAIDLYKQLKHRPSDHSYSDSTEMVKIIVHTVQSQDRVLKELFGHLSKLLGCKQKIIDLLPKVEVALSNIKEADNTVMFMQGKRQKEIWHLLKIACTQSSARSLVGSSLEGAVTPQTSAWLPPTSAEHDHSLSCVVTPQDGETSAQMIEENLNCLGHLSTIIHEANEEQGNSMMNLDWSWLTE
T1 sequence (Q9Y6K9 whole entry partner, one chain of several): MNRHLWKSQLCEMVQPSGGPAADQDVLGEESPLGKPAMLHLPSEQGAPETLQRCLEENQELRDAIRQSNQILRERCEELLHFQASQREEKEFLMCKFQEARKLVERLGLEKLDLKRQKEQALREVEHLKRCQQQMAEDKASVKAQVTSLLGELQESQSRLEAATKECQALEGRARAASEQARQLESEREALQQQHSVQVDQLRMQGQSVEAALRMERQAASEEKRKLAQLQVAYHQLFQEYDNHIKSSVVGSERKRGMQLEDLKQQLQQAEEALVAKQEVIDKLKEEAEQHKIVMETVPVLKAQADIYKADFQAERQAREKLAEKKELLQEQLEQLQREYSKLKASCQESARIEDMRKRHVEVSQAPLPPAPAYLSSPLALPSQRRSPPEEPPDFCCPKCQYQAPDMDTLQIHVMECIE

On to `CCCCC/C=C\C/C=C\C/C=C\C/C=C\CCCC(=O)O` [Arachidonic acid, arachidonic acid], for which the “effect on IKK activity in vitro, FIG. 5B” value at IKK [1] is “ineffective”. Also, at IKK [2], the “effect on IKK activity in vivo (cells), FIG. 5A” value (“effect on IKK activity in vivo” for short) is “ineffective”.
In the case of `CCCCC[C@H](O)/C=C/C1=C(C/C=C\CCCC(=O)O)C(=O)CC1` [PGB2], the “effect on IKK activity in vitro, FIG. 5B” value on IKK [1] was “ineffective”. The “effect on IKK activity in vivo” value at IKK [2] is given as “ineffective”.
On to `CCCCC[C@H](O)/C=C/[C@H]1C(=O)C[C@H](O)[C@@H]1C/C=C\CCCC(=O)O` [PGD2], for which the “effect on IKK activity in vitro, FIG. 5B” value on IKK [1] is reported as “ineffective”. In addition, the “effect on IKK activity in vivo” value on IKK [2] is “ineffective”.
Consider `CCCCC[C@H](O)/C=C/[C@H]1[C@H](O)CC(=O)[C@@H]1CCCCCCC(=O)O` [PGE1], for which the “effect on IKK activity in vitro, FIG. 5B” value at IKK [1] is reported as “ineffective”. Besides, the “effect on IKK activity in vivo” value at IKK [2] is “ineffective”.
For the compound `CCCCC[C@H](O)/C=C/[C@H]1[C@H](O)CC(=O)[C@@H]1C/C=C\CCCC(=O)O` [PGE2], the “effect on IKK activity in vitro, FIG. 5B” value on IKK [1] is listed as “ineffective”. On IKK [2], the “effect on IKK activity in vivo” value is “ineffective”.
`CCCCC[C@H](O)/C=C/[C@@H]1[C@@H](CCCCCCC(=O)O)[C@@H](O)C[C@H]1O` [PGF1α]: on IKK [1], the “effect on IKK activity in vitro, FIG. 5B” value is given as “ineffective”. In addition, on IKK [2], the “effect on IKK activity in vivo” value was “ineffective”.
As to `CC(=O)Oc1ccccc1C(=O)O` [aspirin], the “inhibition of IKKβ” value on IKKβ is “inhibited”.
As for `CCCCC/C=C\C[C@@H](O)/C=C/C=C/C=C\[C@@H](O)CCCC(=O)O` [leukotriene B4], the “effect on IKK activity in vitro, FIG. 5B” value on IKK [1] was “ineffective”. For the same compound, the “effect on IKK activity in vivo” value at IKK [2] is recorded as “ineffective”.
Turning to `CCCCC[C@H](O)/C=C/[C@H]1OC(O)C[C@H](O)[C@@H]1C/C=C\CCCC(=O)O` (stereo partly drawn) [thromboxane B2], the “effect on IKK activity in vitro, FIG. 5B” value on IKK [1] was “ineffective”. In addition, the “effect on IKK activity in vivo” value at IKK [2] was “ineffective”.
Regarding `Cc1c(C)c2c(c(C)c1O)CCC(C)(COc1ccc(CC3SC(=O)NC3=O)cc1)O2` (stereo not drawn) [troglitazone, reference compound], the “effect on NF-κB activation” value with NF-κB is “does not inhibit”.
